Values joined by “and” are separate entries in the source; they are usually repeats but may differ in a detail not shown here. Equal values may be shown once. Toxic doses and inconclusive results are not listed.
System: L1210 leukemia ip in BDF1 mice, survival T/C
Experiment: NCI In Vivo Anticancer Drug Screen. Data for tumor model L1210 Leukemia (intraperitoneal) in B6D2F1 (BDF1) mice
Settings: endpoint: mean survival time, higher = longer survival
Procedure, shortened: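 Transplanted-tumor mice were given test agent; controls received vehicle only. Survival readings from the two groups were divided (treated over control).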

[1] = dose: 20.0 mg/kg/injection, schedule: Q01DX001 (ip), vehicle: saline
[2] = dose: 100.0 mg/kg/injection, schedule: Q01DX001 (ip), vehicle: saline with Tween-80
[3] = dose: 100.0 mg/kg/injection, schedule: Q01DX001 (ip), vehicle: saline
[4] = dose: 200.0 mg/kg/injection, schedule: Q01DX001 (ip), vehicle: saline with Tween-80
[5] = dose: 200.0 mg/kg/injection, schedule: Q01DX001 (ip), vehicle: saline
[6] = dose: 50.0 mg/kg/injection, schedule: Q01DX009 (ip), vehicle: saline
[7] = dose: 100.0 mg/kg/injection, schedule: Q01DX009 (ip), vehicle: saline
[8] = dose: 100.0 mg/kg/injection, schedule: Q04DX003 (ip), vehicle: saline
[9] = dose: 100.0 mg/kg/injection, schedule: Q04DX003 (ip), vehicle: saline with Tween-80
[10] = dose: 200.0 mg/kg/injection, schedule: Q04DX003 (ip), vehicle: saline with Tween-80
[11] = dose: 400.0 mg/kg/injection, schedule: Q04DX003 (ip), vehicle: saline with Tween-80
[12] = dose: 100.0 mg/kg/injection, schedule: Q01DX009 (ip), vehicle: saline with Tween-80
[13] = dose: 200.0 mg/kg/injection, schedule: Q01DX009 (ip), vehicle: saline with Tween-80
[14] = dose: 400.0 mg/kg/injection, schedule: Q01DX009 (ip), vehicle: saline with Tween-80
[15] = dose: 50.0 mg/kg/injection, schedule: Q01DX009 (ip), vehicle: saline with Tween-80
[16] = dose: 100.0 mg/kg/injection, schedule: Q01DX001 (ip), vehicle: carboxymethylcellulose (CMC)
[17] = dose: 200.0 mg/kg/injection, schedule: Q01DX001 (ip), vehicle: carboxymethylcellulose (CMC)
[18] = dose: 400.0 mg/kg/injection, schedule: Q01DX001 (ip), vehicle: carboxymethylcellulose (CMC)
[19] = dose: 200.0 mg/kg/injection, schedule: Q04DX003 (ip), vehicle: saline
[20] = dose: 400.0 mg/kg/injection, schedule: Q04DX003 (ip), vehicle: saline

For `O=NN(CCCl)C(=O)NC1CCC(O)CC1` (stereo not drawn), the T/C (dose: 6.25 mg/kg/injection, schedule: Q01DX001 (ip), vehicle: saline with Tween-80) was 121 % of control, the T/C (dose: 12.5 mg/kg/injection, schedule: Q01DX001 (ip), vehicle: saline with Tween-80) was 189 % of control and the T/C (dose: 12.5 mg/kg/injection, schedule: Q01DX001 (ip), vehicle: saline) was 172 % of control and 239 % of control. For the same compound, the T/C (dose: 13.0 mg/kg/injection, schedule: Q01DX001 (ip), vehicle: saline) was 384 % of control, the T/C [1] was 494 % of control and the T/C (dose: 25.0 mg/kg/injection, schedule: Q01DX001 (ip), vehicle: saline with Tween-80) was 211 % of control. For the same compound, the T/C (dose: 25.0 mg/kg/injection, schedule: Q01DX001 (ip), vehicle: saline) was 198 % of control and 210 % of control and 253 % of control, the T/C (dose: 26.0 mg/kg/injection, schedule: Q01DX001 (ip), vehicle: saline) was 401 % of control and the T/C (dose: 30.0 mg/kg/injection, schedule: Q01DX001 (ip), vehicle: saline) was 494 % of control. For the same compound, the T/C (dose: 40.0 mg/kg/injection, schedule: Q01DX001 (ip), vehicle: saline) was 435 % of control, the T/C (dose: 44.0 mg/kg/injection, schedule: Q01DX001 (ip), vehicle: saline) was 293 % of control and the T/C (dose: 50.0 mg/kg/injection, schedule: Q01DX001 (ip), vehicle: saline with Tween-80) was 264 % of control. The T/C (dose: 50.0 mg/kg/injection, schedule: Q01DX001 (ip), vehicle: saline) was 252 % of control and 113 % of control and 176 % of control, the T/C (dose: 60.0 mg/kg/injection, schedule: Q01DX001 (ip), vehicle: saline) was 240 % of control and the T/C [2] was 92 % of control. The T/C [3] was 105 % of control and 99 % of control and 110 % of control, the T/C [4] was 87 % of control and the T/C [5] was 103 % of control and 95 % of control and 106 % of control.

In the case of `Nc1cccc(/C=C/c2ccc([N+](=O)[O-])cc2)c1`, the T/C (dose: 100.0 mg/kg/injection, schedule: Q01DX001 (ip), vehicle: Klucel (hydroxypropylcellulose) (HPC)) is reported as 91 % of control, the T/C (dose: 200.0 mg/kg/injection, schedule: Q01DX001 (ip), vehicle: Klucel (hydroxypropylcellulose) (HPC)) is reported as 87 % of control and the T/C (dose: 400.0 mg/kg/injection, schedule: Q01DX001 (ip), vehicle: Klucel (hydroxypropylcellulose) (HPC)) is reported as 94 % of control.

`COC(=O)C1=CN=NC1=[N+]=[N-]` was tested, and the T/C (dose: 10.0 mg/kg/injection, schedule: Q01DX001 (ip), vehicle: saline) was 103 % of control and the T/C [1] was 97 % of control.

In the case of `COCc1nnc2ncnc(OC)c2n1`, the T/C (dose: 25.0 mg/kg/injection, schedule: Q01DX009 (ip), vehicle: saline) is reported as 106 % of control, the T/C (dose: 25.0 mg/kg/injection, schedule: Q04DX003 (ip), vehicle: saline) is reported as 100 % of control and the T/C [6] is reported as 93 % of control. For the same compound, the T/C (dose: 50.0 mg/kg/injection, schedule: Q04DX003 (ip), vehicle: saline) was 102 % of control, the T/C [3] was 98 % of control and the T/C [7] was 88 % of control. For the same compound, the T/C [8] was 98 % of control.

In the case of `CCNC(C)(C)C(=O)c1ccco1`, the T/C [6] is reported as 94 % of control, the T/C [7] is reported as 100 % of control and the T/C (dose: 200.0 mg/kg/injection, schedule: Q01DX009 (ip), vehicle: saline) is reported as 94 % of control.

For `N#CC(C#N)=C/C=C/C=C/c1c(Cl)cccc1Cl`, the T/C [9] was 92 % of control, the T/C [10] was 103 % of control and the T/C [11] was 105 % of control.

For `CC(C)OC(=O)Nc1cccc(NC(=O)OCCCl)c1`, the T/C (dose: 100.0 mg/kg/injection, schedule: Q04DX002 (ip), vehicle: saline with Tween-80) was 97 % of control, the T/C (dose: 200.0 mg/kg/injection, schedule: Q04DX002 (ip), vehicle: saline with Tween-80) was 101 % of control and the T/C (dose: 400.0 mg/kg/injection, schedule: Q04DX002 (ip), vehicle: saline with Tween-80) was 97 % of control.

In the case of `CC(O)CNC(=O)C(C)O` (stereo not drawn), the T/C [9] is reported as 98 % of control, the T/C [10] is reported as 97 % of control and the T/C [11] is reported as 102 % of control.

`COC(=O)CCN(c1ccccc1)c1ccc(C)cc1` was tested, and the T/C [12] was 91 % of control, the T/C [13] was 92 % of control and the T/C [14] was 92 % of control.

`CN(C)c1ccc(/C=N/NC(=O)CNC(=O)c2ccc(Cl)c(Cl)c2)cc1` was tested, and the T/C [15] was 86 % of control, the T/C [12] was 94 % of control and the T/C [13] was 88 % of control.

`CCCCN1c2ccccc2NP1(=O)c1ccccc1` (stereo not drawn) was tested, and the T/C [9] was 94 % of control, the T/C [10] was 96 % of control and the T/C [11] was 97 % of control.

`Cc1nc2ccc(Cl)c(Cl)c2s1` was tested, and the T/C [2] was 106 % of control, the T/C [4] was 104 % of control and the T/C (dose: 400.0 mg/kg/injection, schedule: Q01DX001 (ip), vehicle: saline with Tween-80) was 100 % of control.

For `CC(=O)OC(CO)C(NC(=O)N1C(=O)C=CC1=O)NC(=O)N1C(=O)C=CC1=O` (stereo not drawn), the T/C [16] was 95 % of control, the T/C [17] was 101 % of control and the T/C [18] was 113 % of control.

For `Cc1ccc(S(=O)(=O)OC23CCC(C)(CC2)C(=O)C3)cc1`, the T/C (dose: 100.0 mg/kg/injection, schedule: Q04DX002 (ip), vehicle: saline) was 91 % of control, the T/C (dose: 200.0 mg/kg/injection, schedule: Q04DX002 (ip), vehicle: saline) was 102 % of control and the T/C (dose: 400.0 mg/kg/injection, schedule: Q04DX002 (ip), vehicle: saline) was 91 % of control.

`CCOC(=O)NC(=O)n1ncnc1N` was tested, and the T/C [8] was 108 % of control, the T/C [19] was 103 % of control and the T/C [20] was 94 % of control.

`CSc1ncnc2c1cnn2C1OC(CCC#N)C(O)C1O` (stereo not drawn) was tested, and the T/C [3] was 97 % of control and the T/C [5] was 98 % of control.

For `Cc1ccc2c(c1)CCCN2C=O`, the T/C [15] was 95 % of control, the T/C [12] was 93 % of control and the T/C [9] was 102 % of control. The T/C [13] was 102 % of control and the T/C [10] was 94 % of control.

For `Cc1c(C(C)(C)C)cc(C(C)(C)C)c(O)c1[N+](=O)[O-]`, the T/C [16] was 93 % of control and 95 % of control, the T/C (dose: 100.0 mg/kg/injection, schedule: Q04DX002 (ip), vehicle: carboxymethylcellulose (CMC)) was 90 % of control and 91 % of control and the T/C (dose: 100.0 mg/kg/injection, schedule: Q04DX003 (ip), vehicle: carboxymethylcellulose (CMC)) was 97 % of control and 98 % of control. For the same compound, the T/C [17] was 95 % of control and 99 % of control and 111 % of control, the T/C (dose: 200.0 mg/kg/injection, schedule: Q04DX002 (ip), vehicle: carboxymethylcellulose (CMC)) was 87 % of control and 89 % of control and the T/C (dose: 200.0 mg/kg/injection, schedule: Q04DX003 (ip), vehicle: carboxymethylcellulose (CMC)) was 96 % of control and 90 % of control. The T/C [18] was 94 % of control and 101 % of control and 105 % of control, the T/C (dose: 400.0 mg/kg/injection, schedule: Q04DX002 (ip), vehicle: carboxymethylcellulose (CMC)) was 96 % of control and 111 % of control and the T/C (dose: 400.0 mg/kg/injection, schedule: Q04DX003 (ip), vehicle: carboxymethylcellulose (CMC)) was 96 % of control and 87 % of control.

`O=C(Nc1ccc(N=Nc2ccccc2)cc1)C1CC1` was tested, and the T/C (dose: 100.0 mg/kg/injection, schedule: Q01DX009 (ip), vehicle: Klucel (hydroxypropylcellulose) (HPC)) was 101 % of control, the T/C (dose: 200.0 mg/kg/injection, schedule: Q01DX009 (ip), vehicle: Klucel (hydroxypropylcellulose) (HPC)) was 100 % of control and the T/C (dose: 400.0 mg/kg/injection, schedule: Q01DX009 (ip), vehicle: Klucel (hydroxypropylcellulose) (HPC)) was 94 % of control.

With `CN(Cc1ccccc1)C(=O)Nc1cccc(C(F)(F)F)c1` the T/C [12] was 107 % of control, the T/C [13] was 98 % of control and the T/C [14] was 96 % of control.

With `CCCCCCCCC(=O)N1CCCCC1C` (stereo not drawn) the T/C (dose: 100.0 mg/kg/injection, schedule: Q04DX002 (ip), vehicle: Klucel (hydroxypropylcellulose) (HPC)) was 96 % of control, the T/C (dose: 200.0 mg/kg/injection, schedule: Q04DX002 (ip), vehicle: Klucel (hydroxypropylcellulose) (HPC)) was 100 % of control and the T/C (dose: 400.0 mg/kg/injection, schedule: Q04DX002 (ip), vehicle: Klucel (hydroxypropylcellulose) (HPC)) was 88 % of control.

`O=C(NCCCl)n1cncn1` was tested, and the T/C (dose: 100.0 mg/kg/injection, schedule: Q01DX009 (ip), vehicle: acetone) was 100 % of control, the T/C (dose: 100.0 mg/kg/injection, schedule: Q04DX003 (ip), vehicle: acetone) was 102 % of control and the T/C (dose: 200.0 mg/kg/injection, schedule: Q01DX009 (ip), vehicle: acetone) was 92 % of control. For the same compound, the T/C (dose: 200.0 mg/kg/injection, schedule: Q04DX003 (ip), vehicle: acetone) was 102 % of control, the T/C (dose: 400.0 mg/kg/injection, schedule: Q01DX009 (ip), vehicle: acetone) was 103 % of control and the T/C (dose: 400.0 mg/kg/injection, schedule: Q04DX003 (ip), vehicle: acetone) was 102 % of control.

`CCOC(=O)CC(=O)NCCc1cccc(OC)c1OC` was tested, and the T/C [8] was 93 % of control, the T/C [19] was 90 % of control and the T/C [20] was 93 % of control.

`CC[N+](CC)(CC)CCOC(=O)C1C2CC3OC(=O)C1C3C2` (stereo not drawn) was tested, and the T/C [8] was 96 % of control.

From PubChem BioAssay AID248 (DTP/NCI, 2004)
